Results reported in US20080051464A1, “Protein phosphatase inhibitors” (The Cleveland Clinic Foundation, priority 2006, published 2008).

Assays:
pERK1/2 in B16 cells = pERK1/2 in B16 cells (Western blotting); assay type: cell-based, mouse; conditions: 10 min (FIG. 20C)
Experimental: FIG. 20 illustrates L6 induces pERK1/2 in Jurkat and B16 cells. A and B, Western blotting membranes with samples and probed for the SHP-1 substrates were stripped and then re-probed with an antibody for pERK1/2. C, B16 cells were treated with L6 or L6a6 at […] for 10 min and subjected to SDS-PAGE/Western blotting to quantify pERK1/2.

Jurkat cells = assay: Jurkat cell apoptosis (Annexin V / 7-AAD, FACS); assay type: cell-based, human; conditions: 16 hrs (FIG. 23)
Experimental: FIG. 23 illustrates jurkat cells were treated with L6 and analogs in culture for 16 hrs. Cells were then stained for apoptotic marker Annexin V and cell death marker 7-AAD prior to FACS analysis.

[1] = system: HT-29 human colon cancer cells; assay: cytotoxicity of 5FU against HT-29 cells with L6 or analogs (MTT assay); assay type: cell-based; conditions: 5FU 2 μm, 3 days, then 4 days culture (FIG. 24)
Experimental: FIG. 24 illustrates HT-29 cells were treated with L6 or the analogs in the absence or presence of 5FU (2 μm) for 3 days. After washing, the cells were cultured for 4 days prior to quantification of viable cells by MTT assays.

MKPs = assay: induction of MKPs substrates in Jurkat cells (Western blotting); assay type: cell-based, human; conditions: for differential effects on MKP substrates (pERK1/2, p38, pJNK): L6 at 1-100 ng/ml
Experimental: FIG. 22 illustrates selective induction of MKPs substrates by L6 and analogs in Jurkat human leukemic cells. Jurkat cells were treated with the compounds for 30 min in culture prior to quantification of MKPs substrates by SDS-PAGE/Western blotting.

[2] = system: melanoma MeI-7, colon cancer MC-26, breast cancer 4T1 and prostate cancer DU145; assay: cyto-toxicity against four other cancer cell lines (MTT assay); assay type: cell-based; conditions: FIGS. 19B, C and D
From the text: (§1) L5, L6 and L6 analogs (Chembridge), mouse IFNγ ELISPOT Kit (R & D System) and antibody against pLck-pY394 or pERK1/2 (Cell Signaling) were purchased from commercial sources. Human Jurkat T cell line and murine B16 melanoma cell line (ATCC) and other cancer cell lines were maintained in […] culture medium supplemented with 10% fetal calf serum (FCS). The effects of chemical compounds on cancer cell growth in culture were quantified by MTT assays following our established procedures.

prostate cancer DU145 = assay: DU145 cell growth (MTT assay); assay type: cell-based; conditions: highest testing dose (5 μg/ml) (FIG. 19E)
From the text: as §1

B16 melanoma cells = assay: B16 melanoma cell growth in culture (MTT assay); assay type: cell-based, mouse
From the text: as §1

Structure (SMILES): Cc1cc(-n2sc(Cl)c(C)c2=O)ccc1Cl [L6a6]
- induction of pERK1/2 in B16 cells (pERK1/2 in B16 cells): pERK1/2-inducing activity
- Jurkat cell apoptosis (Jurkat cells): apoptosis were induced
- augmentation of 5FU cytotoxicity against HT-29 cells [1]: augmented
- MKP predominantly targeted (as indicated by effects on the substrates) (MKPs): mainly acted against MKP1
- dose inducing pJNK and p-p38 (MKPs; 30 min (FIG. 22)): ≥ 1 ng/ml
- differential effects on MKP substrates (pERK1/2, p38, pJNK) (MKPs; 30 min (FIG. 22)): induced pERK1/2 only at the high doses

Structure (SMILES): Cc1ccc(-n2sc3ccccc3c2=O)cc1 [L6a2]
- Jurkat cell apoptosis (Jurkat cells): apoptosis were induced
- killing dose relative to L6 and L6a6 [2]: 5-10 folds higher
- DU145 cell growth (prostate cancer DU145): failed to affect DU145 cell growth
- dose that completely killed B16 cells (killing dose) (B16 melanoma cells; FIG. 19A): 2.5 µg/mL
- toxicity toward B16 cells in culture (B16 melanoma cells; comparable conditions (FIG. 19A)): little or limited toxicity
- MKP predominantly targeted (as indicated by effects on the substrates) (MKPs): targeted a p38-specific MKP
- differential effects on MKP substrates (pERK1/2, p38, pJNK) (MKPs; 30 min (FIG. 22)): selectively induced p38 phosphorylation
